# Data from ChEMBL document CHEMBL4251688, “Allosteric Modulators of Nicotinic Acetylcholine Receptors Useful for the Treatment of Cognitive Impairment” (ACS Med Chem Lett, 2018).
# Biological target: Neuronal acetylcholine receptor subunit alpha-7 (Homo sapiens, UniProt P36544)
# Experiment: Positive allosteric modulation of human alpha 7 nAChR expressed in HEK cells co-expressing human RIC3 assessed as increase in acetylcholine-induced channel current at holding potential of -60 mV incubated for 58 secs followed by acetylcholine treatment for 1 sec by patch clamp electrophysiology assay
# Type: cell-based
# Neuronal acetylcholine receptor subunit alpha-7, sequence (P36544 whole entry): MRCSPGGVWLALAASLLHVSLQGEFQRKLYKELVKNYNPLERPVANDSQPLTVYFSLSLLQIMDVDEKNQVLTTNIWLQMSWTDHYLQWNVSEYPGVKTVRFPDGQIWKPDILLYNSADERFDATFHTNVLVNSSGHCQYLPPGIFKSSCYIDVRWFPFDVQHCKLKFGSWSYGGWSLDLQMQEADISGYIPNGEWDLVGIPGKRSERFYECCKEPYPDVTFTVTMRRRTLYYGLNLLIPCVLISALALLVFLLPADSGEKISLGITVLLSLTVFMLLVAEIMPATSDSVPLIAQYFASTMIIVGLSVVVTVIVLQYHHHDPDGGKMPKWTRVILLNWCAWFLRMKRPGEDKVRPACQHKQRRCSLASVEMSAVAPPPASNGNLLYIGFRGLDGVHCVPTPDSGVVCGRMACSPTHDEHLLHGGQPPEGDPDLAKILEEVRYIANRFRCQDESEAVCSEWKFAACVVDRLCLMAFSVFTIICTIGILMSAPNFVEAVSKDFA
row,SMILES,EC50 [nM]
1,CC(Oc1cccc(Cl)c1)c1nc([C@H]2[C@H](c3ccc(S(N)(=O)=O)cc3)C2(C)C)no1 (stereo not given in full),93
2,CC1(C)[C@@H](c2ccc(S(N)(=O)=O)cc2)[C@@H]1c1noc(C2CCCC2)n1,69

# Results, then the molecule that gave them:
row,EC50 [nM],SMILES
1,93,CC1(C)[C@@H](c2ccc(S(N)(=O)=O)cc2)[C@@H]1c1noc(-c2ccc(F)cc2)n1
2,83,NS(=O)(=O)c1ccc([C@H]2[C@H](c3noc(-c4ccccc4)n3)C2(F)F)cc1
3,98,CC1(C)[C@@H](c2ccc(S(N)(=O)=O)cc2)[C@@H]1c1noc(C2CC(F)(F)C2)n1
